According to US20260297095A1, “NOVEL PYRROLOTRIAZINE DERIVATIVE AND USE THEREOF” (Pelemed Co., Ltd., priority 2024, published 2026):

Assays:
YES1 kinase = YES1 kinase (Homo sapiens, UniProt P07947); assay: YES1 kinase inhibition, ADP Glo assay (Promega); format: biochemical; conditions: for inhibition at 0.01 µM: compound 10 nM, read-out: YES1 enzyme, % inhibition, 10 nM; for inhibition at 0.1 µM: compound 100 nM, read-out: YES1 enzyme, % inhibition, 100 nM; for YES1 kinase inhibition at 1 nM (in words) / inhibition at 0.001 µM: compound 1 nM; for inhibition at 0.001 µM: read-out: YES1 enzyme, % inhibition, 1 nM; for IC50: class symbols, read-out: YES1 enzyme, IC50
How it was run: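 YES1 kinase was preincubated 10 min with compound in Mn2+/DTT-containing kinase buffer, then reacted 40 min at room temperature with ATP/substrate; ADP was detected by ADP-Glo luminescence. Activity, background-subtracted and normalised to negative control, is given as % inhibition at 1, 10 and 100 nM, plus IC50.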

[1] = test system: KYSE-70 esophageal cancer cell line; assay: Cell growth inhibition of KYSE-70 (Sulforhodamine B); format: cell-based; conditions: Homo sapiens; KYSE-70, 72 hours; read-out: KYSE70 GI50
How it was run: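 KYSE-70 cells (YES1-amplified) in RPMI-1640 with 10% FBS were seeded 24 h before treatment with compound at 0.0046–10 µM final. After 72 h, cells were TCA-fixed and stained with sulforhodamine B, with absorbance read at 510 nm. GI50 was derived with a time-zero plate set to 0% and the vehicle control to 100%, in duplicate tests.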

Chain of YES1 kinase (P07947 whole entry): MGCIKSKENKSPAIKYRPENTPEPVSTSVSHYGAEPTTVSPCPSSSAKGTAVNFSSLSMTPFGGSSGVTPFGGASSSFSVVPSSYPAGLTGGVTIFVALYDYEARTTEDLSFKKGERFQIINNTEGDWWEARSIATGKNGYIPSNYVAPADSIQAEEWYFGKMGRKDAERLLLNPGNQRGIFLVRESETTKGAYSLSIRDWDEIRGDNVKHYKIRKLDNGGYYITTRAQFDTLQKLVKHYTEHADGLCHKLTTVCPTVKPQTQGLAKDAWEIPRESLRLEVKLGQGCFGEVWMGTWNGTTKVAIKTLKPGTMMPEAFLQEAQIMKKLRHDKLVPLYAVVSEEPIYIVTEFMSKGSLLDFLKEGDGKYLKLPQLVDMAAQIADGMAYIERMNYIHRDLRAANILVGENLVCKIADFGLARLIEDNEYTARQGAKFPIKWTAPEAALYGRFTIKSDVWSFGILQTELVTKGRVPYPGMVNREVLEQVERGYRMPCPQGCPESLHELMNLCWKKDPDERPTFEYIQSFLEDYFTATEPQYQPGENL

| SMILES | inhibition at 0.01 µM (YES1 kinase) | inhibition at 0.1 µM (YES1 kinase) | GI50 [1] | inhibition at 0.001 µM (YES1 kinase) | IC50 (YES1 kinase) | YES1 kinase inhibition at 1 nM (in words) (YES1 kinase) |
| --- | --- | --- | --- | --- | --- | --- |
| COc1cc(-c2cc(N3CCC4(CCN(C)C4)CC3)n3ncnc(N)c23)ccc1NC(=O)OC(C)(C)C [Example 22, tert-butyl (4-(4-amino-7-(2-methyl-2,8-diazaspiro[4.5]decan-8-yl)pyrrolo[2,1-f][1,2,4]triazin-5-yl)-2-methoxyphenyl)carbamate] | 60% | 87% | 100 to 1000 nM |  |  |  |
| COc1cc(-c2cc(N3CCC(C(=O)O)CC3)n3ncnc(N)c23)ccc1NC(=O)OC(C)(C)C [Example 89, 1-(4-amino-5-(4-((tert-butoxycarbonyl)amino)-3-methoxyphenyl)pyrrolo[2,1-f][1,2,4]triazin-7-yl)piperidine-4-carboxylic acid] | 34% |  | > 10000 nM | 19% |  | could be inhibited even at a low concentration of 1 nM |
| COc1cc(-c2cc(N[C@H]3C[C@H](N)C3)n3ncnc(N)c23)ccc1NC(=O)OC(C)(C)C [Example 119, tert-butyl (4-(4-amino-7-(((1r,3r)-3-aminocyclobutyl)amino)pyrrolo[2,1-f][1,2,4]triazin-5-yl)-2-methoxyphenyl)carbamate] | 55% |  | 100 to 1000 nM | 24% |  | could be inhibited even at a low concentration of 1 nM |
| COc1cc(-c2cc(N3CCC4(CC3)CC(=O)N(C)C4)n3ncnc(N)c23)ccc1NC(=O)OC(C)(C)C [Example 27, tert-butyl (4-(4-amino-7-(2-methyl-3-oxo-2,8-diazaspiro[4.5]decan-8-yl)pyrrolo[2,1-f][1,2,4]triazin-5-yl)-2-methoxyphenyl)carbamate] | 59% | 74% | 1000 to 10000 nM |  |  |  |
| COc1cc(-c2cc(-c3ccc(N(C)C)cc3)n3ncnc(N)c23)ccc1NC(=O)OC(C)(C)C [Example 1, tert-butyl (4-(4-amino-7-(4-(dimethylamino)phenyl)pyrrolo[2,1-f][1,2,4]triazin-5-yl)-2-methoxyphenyl)carbamate] | 17% | 31% | 1000 to 10000 nM |  |  |  |
| COc1cc(-c2cc(N[C@H]3CC[C@H](N)C3)n3ncnc(N)c23)ccc1NC(=O)OC(C)(C)C [Example 116, tert-butyl (4-(4-amino-7-(((1S,3S)-3-aminocyclopentyl)amino)pyrrolo[2,1-f][1,2,4]triazin-5-yl)-2-methoxyphenyl)carbamate] | 63% |  | 100 to 1000 nM | 30% |  | could be inhibited even at a low concentration of 1 nM |
| COc1cc(-c2cc(-c3ccc4c(c3)OCCN4C)n3ncnc(N)c23)ccc1NC(=O)OC(C)(C)C [Example 7, tert-butyl (4-(4-amino-7-(4-methyl-3,4-dihydro-2H-benzo[b][1,4]oxazin-7-yl)pyrrolo[2,1-f][1,2,4]triazin-5-yl)-2-methoxyphenyl)carbamate] | 28% | 49% | 1000 to 10000 nM |  |  |  |
| COc1cc(-c2cc(N3CCC4(CC3)CC(=O)N4)n3ncnc(N)c23)ccc1NC(=O)OC(C)(C)C [Example 56, tert-butyl (4-(4-amino-7-(2-oxo-1,7-diazaspiro[3.5]nonan-7-yl)pyrrolo[2,1-f][1,2,4]triazin-5-yl)-2-methoxyphenyl)carbamate] | 23% | 68% | ≤ 100 nM |  | ≤ 100 nM |  |
| COc1cc(-c2cc(N3CCC4(CC3)CNC(=O)C4)n3ncnc(N)c23)ccc1NC(=O)OC(C)(C)C [Example 52, tert-butyl (4-(4-amino-7-(3-oxo-2,8-diazaspiro[4.5]decan-8-yl)pyrrolo[2,1-f][1,2,4]triazin-5-yl)-2-methoxyphenyl)carbamate] | 60% | 90% | 100 to 1000 nM |  | ≤ 100 nM |  |
| COc1cc(-c2cc(N3CCC(N)CC3)n3ncnc(N)c23)ccc1NC(=O)OC(C)(C)CF [Example 65, 1-fluoro-2-methylpropan-2-yl (4-(4-amino-7-(4-aminopiperidin-1-yl)pyrrolo[2,1-f][1,2,4]triazin-5-yl)-2-methoxyphenyl)carbamate] |  |  | 100 to 1000 nM |  | ≤ 100 nM |  |
| COc1cc(-c2cc(N[C@H]3CC[C@@H](N)CC3)n3ncnc(N)c23)ccc1NC(=O)OC(C)(C)C [Example 121, tert-butyl (4-(4-amino-7-(((1s,4s)-4-aminocyclohexyl)amino)pyrrolo[2,1-f][1,2,4]triazin-5-yl)-2-methoxyphenyl)carbamate] | 50% | 77% | 100 to 1000 nM |  |  |  |
| COc1cc(-c2cc(-c3ccc(N(C)C)c(F)c3)n3ncnc(N)c23)ccc1NC(=O)OC(C)(C)C [Example 4, tert-butyl (4-(4-amino-7-(4-(dimethylamino)-3-fluorophenyl)pyrrolo[2,1-f][1,2,4]triazin-5-yl)-2-methoxyphenyl)carbamate] | 31% | 29% | 1000 to 10000 nM |  |  |  |
| CN(C)C1CCN(c2cc(-c3ccc(Oc4ccccc4)cc3)c3c(N)ncnn23)CC1 [Example 136, 7-(4-(dimethylamino)piperidin-1-yl)-5-(4-phenoxyphenyl)pyrrolo[2,1-f][1,2,4]triazin-4-amine] | 64% | 90% | ≤ 100 nM |  |  |  |

More lines, main results first:

| inhibition at 0.01 µM (YES1 kinase) | inhibition at 0.1 µM (YES1 kinase) | GI50 [1] | inhibition at 0.001 µM (YES1 kinase) | IC50 (YES1 kinase) | SMILES | YES1 kinase inhibition at 1 nM (in words) (YES1 kinase) |
| --- | --- | --- | --- | --- | --- | --- |
| 65% | 86% | 100 to 1000 nM |  |  | COc1cc(-c2cc(N3CCC(N)CC3)n3ncnc(N)c23)ccc1NC(=O)OC(C)(C)C [Example 12, tert-butyl (4-(4-amino-7-(4-aminopiperidin-1-yl)pyrrolo[2,1-f][1,2,4]triazin-5-yl)-2-methoxyphenyl)carbamate] |  |
| 36% | 70% | 100 to 1000 nM |  |  | COc1cc(-c2cc(N3CCC(CN(C)C)C3)n3ncnc(N)c23)ccc1NC(=O)OC(C)(C)C (centres unmarked) [Example 20, tert-butyl (4-(4-amino-7-(3-((dimethylamino)methyl)pyrrolidin-1-yl)pyrrolo[2,1-f][1,2,4]triazin-5-yl)-2-methoxyphenyl)carbamate] |  |
| 8% | 38% | 1000 to 10000 nM |  |  | COc1cc(-c2cc(N3CC[C@@H](N(C)C)C3)n3ncnc(N)c23)ccc1NC(=O)OC(C)(C)C [Example 10, tert-butyl (R)-(4-(4-amino-7-(3-(dimethylamino)pyrrolidin-1-yl)pyrrolo[2,1-f][1,2,4]triazin-5-yl)-2-methoxyphenyl)carbamate] |  |
| 61% | 80% | ≤ 100 nM |  | ≤ 100 nM | CN[C@@H]1CCN(c2cc(-c3ccc(NC(=O)OC(C)(C)C)c(OC)c3)c3c(N)ncnn23)C[C@@H]1F [Example 87, tert-butyl (4-(4-amino-7-((3S,4R)-3-fluoro-4-(methylamino)piperidin-1-yl)pyrrolo[2,1-f][1,2,4]triazin-5-yl)-2-methoxyphenyl)carbamate] |  |
| 47% |  | 100 to 1000 nM | 12% |  | COc1cc(-c2cc(N3CCC(O)CC3)n3ncnc(N)c23)ccc1NC(=O)OC(C)(C)C [Example 90, tert-butyl (4-(4-amino-7-(4-hydroxypiperidin-1-yl)pyrrolo[2,1-f][1,2,4]triazin-5-yl)-2-methoxyphenyl)carbamate] | could be inhibited even at a low concentration of 1 nM |
| 30% | 69% | 1000 to 10000 nM |  |  | COc1cc(-c2cc(N3CCC4C(CCN4C)C3)n3ncnc(N)c23)ccc1NC(=O)OC(C)(C)C (centres unmarked) [Example 26, tert-butyl (4-(4-amino-7-(1-methyloctahydro-5H-pyrrolo[3,2-c]pyridin-5-yl)pyrrolo[2,1-f][1,2,4]triazin-5-yl)-2-methoxyphenyl)carbamate] |  |
| 44% | 80% | ≤ 100 nM |  |  | COc1cc(-c2cc(N3CC4(CCN(C)CC4)C3)n3ncnc(N)c23)ccc1NC(=O)OC(C)(C)C [Example 38, tert-butyl (4-(4-amino-7-(7-methyl-2,7-diazaspiro[3.5]nonan-2-yl)pyrrolo[2,1-f][1,2,4]triazin-5-yl)-2-methoxyphenyl)carbamate] |  |
| 45% |  | 100 to 1000 nM | 33% |  | COc1cc(-c2cc(N3CCC(CN)C(C)(C)C3)n3ncnc(N)c23)ccc1NC(=O)OC(C)(C)C (centres unmarked) [Example 104, tert-butyl (4-(4-amino-7-(4-(aminomethyl)-3,3-dimethylpiperidin-1-yl)pyrrolo[2,1-f][1,2,4]triazin-5-yl)-2-methoxyphenyl)carbamate] | could be inhibited even at a low concentration of 1 nM |
| 59% | 78% | ≤ 100 nM |  | ≤ 100 nM | COc1cc(-c2cc(N3CC[C@H](N)[C@@H](C(F)(F)F)C3)n3ncnc(N)c23)ccc1NC(=O)OC(C)(C)C [Example 85, tert-butyl (4-(4-amino-7-((3S,4S)-4-amino-3-(trifluoromethyl)piperidin-1-yl)pyrrolo[2,1-f][1,2,4]triazin-5-yl)-2-methoxyphenyl)carbamate] |  |
